Here are results for 30 compounds from US20250376461A1, “INDAZOLE DERIVATIVES FOR TREATING TRPM3-MEDIATED DISORDERS” (Katholieke Universiteit Leuven, priority 2022, published 2025).

Usually pIC50 stands for the IC50 on a negative log10 scale, so that one unit is a factor of ten. Low readings indicate a high IC50, high ones a low IC50.

Each structure is given as a SMILES string. pIC50: −log10 of the molar value.

The target of this experiment is T1, mouse TRPM3α2 (mTRPM3) ion channel (Mus musculus, UniProt J9SQF3).
T1 construct: expressed in transfected cells; host or cells: flip-in HEK293
T1 sequence (J9SQF3 1-1709 isoform J9SQF3-12): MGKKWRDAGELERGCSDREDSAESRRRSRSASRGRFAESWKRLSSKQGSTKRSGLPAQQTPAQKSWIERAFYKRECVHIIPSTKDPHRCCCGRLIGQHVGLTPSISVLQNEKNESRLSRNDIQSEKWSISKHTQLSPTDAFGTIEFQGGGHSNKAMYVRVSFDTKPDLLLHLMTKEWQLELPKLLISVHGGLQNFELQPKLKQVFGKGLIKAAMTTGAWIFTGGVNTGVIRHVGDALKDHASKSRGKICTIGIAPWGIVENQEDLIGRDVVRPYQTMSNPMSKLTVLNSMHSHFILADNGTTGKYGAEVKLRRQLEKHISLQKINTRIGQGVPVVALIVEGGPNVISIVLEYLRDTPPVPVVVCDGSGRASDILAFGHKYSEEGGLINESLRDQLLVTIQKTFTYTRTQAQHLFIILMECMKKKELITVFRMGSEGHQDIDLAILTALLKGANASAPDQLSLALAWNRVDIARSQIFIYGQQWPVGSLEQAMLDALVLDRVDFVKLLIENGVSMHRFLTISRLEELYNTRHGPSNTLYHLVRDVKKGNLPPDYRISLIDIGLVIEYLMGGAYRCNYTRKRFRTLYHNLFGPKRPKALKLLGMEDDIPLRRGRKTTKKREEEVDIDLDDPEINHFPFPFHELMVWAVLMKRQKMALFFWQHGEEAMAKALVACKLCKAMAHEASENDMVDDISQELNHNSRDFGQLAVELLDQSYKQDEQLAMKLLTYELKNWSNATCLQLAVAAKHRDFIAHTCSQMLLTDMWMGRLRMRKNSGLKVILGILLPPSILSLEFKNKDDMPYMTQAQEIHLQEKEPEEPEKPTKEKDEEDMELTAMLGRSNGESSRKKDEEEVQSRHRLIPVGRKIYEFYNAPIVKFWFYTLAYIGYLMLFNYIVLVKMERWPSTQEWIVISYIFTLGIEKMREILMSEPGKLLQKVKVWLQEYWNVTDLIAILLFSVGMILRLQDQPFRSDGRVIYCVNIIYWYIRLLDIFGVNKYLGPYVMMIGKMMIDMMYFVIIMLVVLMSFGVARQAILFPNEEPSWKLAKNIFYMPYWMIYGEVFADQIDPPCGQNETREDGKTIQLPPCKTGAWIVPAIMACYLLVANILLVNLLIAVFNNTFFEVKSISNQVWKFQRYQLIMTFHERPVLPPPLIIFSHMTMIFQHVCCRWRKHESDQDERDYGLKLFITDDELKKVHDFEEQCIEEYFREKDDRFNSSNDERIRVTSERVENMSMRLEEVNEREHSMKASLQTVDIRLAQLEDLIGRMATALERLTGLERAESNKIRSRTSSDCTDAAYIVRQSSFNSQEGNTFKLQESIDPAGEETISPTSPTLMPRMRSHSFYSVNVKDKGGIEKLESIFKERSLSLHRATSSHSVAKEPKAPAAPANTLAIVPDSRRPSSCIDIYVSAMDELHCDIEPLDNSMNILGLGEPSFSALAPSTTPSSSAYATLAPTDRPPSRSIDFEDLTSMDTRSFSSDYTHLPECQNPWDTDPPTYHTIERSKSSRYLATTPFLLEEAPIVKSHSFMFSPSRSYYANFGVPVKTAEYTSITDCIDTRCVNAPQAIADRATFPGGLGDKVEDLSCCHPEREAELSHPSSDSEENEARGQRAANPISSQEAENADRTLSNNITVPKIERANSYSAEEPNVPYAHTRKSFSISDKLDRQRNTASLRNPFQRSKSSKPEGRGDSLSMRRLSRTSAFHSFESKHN
Kind of experiment: TRPM3 ion channel driven Ca2+ uptake, Fluo-4 AM assay, mTRPM3alpha2 overexpressing flip-in HEK293 cells stimulated with pregnenolone sulfate (50 μM). It is filed as cell-based. The note with it: mTRPM3 overexpressing HEK293 cells stimulated with pregnenolone sulfate (50 μM), activity ranges A, B, C. Here is the method:
Monitoring the TRPM3 Ion Channel Driven Ca2+ Uptake.
In order to monitor the inhibition of the mouse TRPM3α2 (mTRPM3) ion channel by the compounds of the invention, a cellular system making use of an mTRPM3alpha2 or hTRPM3 overexpressing cell line (flip-in HEK293) was used. The TRPM3 channel was stimulated/opened with Pregnenolone sulfate (PS) (50 μM) which results in Ca^2+ influx.
For mTRPM3, the intracellular Ca^2+ was measured with a Calcium responsive dye, Fluor-4 AM ester (Invitrogen). Cells were cultured until a confluence of 80-90%, washed with Versene (Invitrogen) and detached from the surface by a short incubation with 0.05% Trypsin (Invitrogen). The trypsination process was stopped by the addition of complete cell culture medium (DMEM, glutamax, 10% FCS, NEAA, Pen-Strep). Cells were collected and resuspended in Krebs buffer without Calcium at RT.
Prior the cell seeding (±2000 cells/well into a black, 384 well plate (Greiner)) the diluted compound was added in the assay plate, together with the PS dissolved in Krebs buffer containing Calcium. […] Directly after cell addition the plates were read on an Envision fluorescence reader (Perkin Elmer) by an Excitation of 485 nm and emission at 535 nm.
Channel inhibition was calculated compared to a non-PS stimulated control versus a condition stimulated with PS (50 μM) with vehicle. The ability of the compounds of the invention to inhibit this activity was determined as: Percentage inhibition=[1−((RFU determined for sample with test compound present−RFU determined for sample with positive control inhibitor) divided by (RFU determined in the presence of vehicle−RFU determined for sample with positive control inhibitor))]*100.
The activities of the Example compounds cpd 001-262 tested are depicted in the table below. All tested compounds show an activity in the Fluo-4 AM assay. The activity ranges A, B and C refer to IC50 values in the Fluo-4 AM assay as follows: “A”: IC50<1 μM; “B”: 1 μM≤IC50≤20 μM and “C”: IC50>20 μM.
On to `Cn1nc2ccc(OCc3ccccn3)cc2c1C(=O)NC(C)(CO)CC(F)F` (single isomer, unassigned) [Cpd 201 - En2, N-(4,4-difluoro-1-hydroxy-2-methylbutan-2-yl)-2-methyl-5-[(pyridin-2-yl)methoxy]-2H-indazole-3-carboxamide], for which the pIC50 is over 6.00.

For the compound `Cc1ncsc1COc1ccc2nn(C)c(C(=O)NC3CNCCC3(F)F)c2c1` (single isomer, unassigned) [Cpd 211 - En2, N-(4,4-difluoropiperidin-3-yl)-2-methyl-5-[(4-methyl-1,3-thiazol-5-yl)methoxy]-2H-indazole-3-carboxamide], the pIC50 is over 6.00.

`Cn1nc2ccc(OCc3ccccc3F)cc2c1C(=O)NC1(C(N)=O)CCOC1` (single isomer, unassigned) [Cpd 166 - En2] showed a pIC50 of over 6.00.

Compound `Cc1ccc(COc2ccc3nn(C)c(C(=O)NC(C)(CO)C(N)=O)c3c2)nc1` (single isomer, unassigned) [Cpd 181 - En2] showed a pIC50 of 4.70 to 6.00.

Take `CN1CCC(NC(=O)c2c3cc(OCc4ccccn4)ccc3nn2C)CC1` [Cpd 084, 2-methyl-N-(1-methylpiperidin-4-yl)-5-[(pyridin-2-yl)methoxy]-2H-indazole-3-carboxamide]: the pIC50 was 4.70 to 6.00.

With `CN(C)C1(CNC(=O)c2c3cc(OCc4cccnc4C(F)(F)F)ccc3nn2C)CCC1` [Cpd 042, N-{[1-(dimethylamino)cyclobutyl]methyl}-2-methyl-5-{[2-(trifluoromethyl)pyridin-3-yl]methoxy}-2H-indazole-3-carboxamide], the pIC50 was 4.70 to 6.00.

The compound `Cn1nc2ccc(OCc3cccnc3C(F)(F)F)cc2c1C(=O)NC1(C(N)=O)CCOC1` (single isomer, unassigned) [Cpd 178 - En1] had a pIC50 of over 6.00.

Regarding `Cn1nc2ccc(OCc3ccccn3)cc2c1C(=O)NCc1ncc[nH]1` [Cpd 206, N-[(1H-imidazol-2-yl)methyl]-2-methyl-5-[(pyridin-2-yl)methoxy]-2H-indazole-3-carboxamide], the pIC50 was 4.70 to 6.00.

`Cn1nc2ccc(OCc3ccccn3)cc2c1C(=O)NC(CO)CC(F)F` (single isomer, unassigned) [Cpd 228 - En1] had a pIC50 of over 6.00.

`Cc1ncsc1COc1ccc2nn(C)c(C(=O)NC(C)(CO)CC(F)F)c2c1` (single isomer, unassigned) [Cpd 182 - En2] gave a pIC50 of over 6.00.

In turn, `Cn1nc2ccc(OCc3ccccn3)cc2c1C(=O)NC1CCNC1` (single isomer, unassigned) [Cpd 216 - En1] showed a pIC50 of under 4.70.

Turning to `Cn1nc2ccc(OCc3ccccn3)cc2c1C(=O)N[C@H]1CCN(CCO)C1=O` [Cpd 153, N-[(3S)-1-(2-hydroxyethyl)-2-oxopyrrolidin-3-yl]-2-methyl-5-[(pyridin-2-yl)methoxy]-2H-indazole-3-carboxamide], the pIC50 was under 4.70.

The compound `Cc1ncc(COc2ccc3nn(C)c(C(=O)N[C@H](C(N)=O)[C@@H](C)O)c3c2)s1` [Cpd 149, (2S,3R)-3-hydroxy-2-({2-methyl-5-[(2-methyl-1,3-thiazol-5-yl)methoxy]-2H-indazol-3-yl}formamido)butanamide] gave a pIC50 of over 6.00.

The compound `Cn1nccc1COc1ccc2nn(C)c(C(=O)NC(CO)C(N)=O)c2c1` (stereo not drawn) [Cpd 027, 3-hydroxy-2-({2-methyl-5-[(1-methyl-1H-pyrazol-5-yl)methoxy]-2H-indazol-3-yl}formamido)propanamide] gave a pIC50 of 4.70 to 6.00.

For `Cn1nc2ccc(OCc3ccccn3)cc2c1C(=O)NC(CO)CC(F)(F)F` (single isomer, unassigned) [Cpd 226-En1], the pIC50 was over 6.00.

With `Cn1ccc(COc2ccc3nn(C)c(C(=O)NC(C)(CO)C(N)=O)c3c2)n1` (single isomer, unassigned) [Cpd 155 - En1], the pIC50 was under 4.70.

In turn, `Cn1nc2ccc(OCc3ccccn3)cc2c1C(=O)NC(CO)C(C(F)(F)F)C(F)(F)F` (single isomer, unassigned) [Cpd 227 - En1] showed a pIC50 of over 6.00.

As for `Cn1nc2ccc(OCC3CC3)cc2c1C(=O)NC1(CO)CCNC1=O` (single isomer, unassigned) [Cpd 161 - En1], the pIC50 was over 6.00.

As to `CN1CCC(NC(=O)c2c3cc(OCc4ccccc4F)ccc3nn2C)CC1` [Cpd 093, 5-[(2-fluorophenyl)methoxy]-2-methyl-N-(1-methylpiperidin-4-yl)-2H-indazole-3-carboxamide], the pIC50 was 4.70 to 6.00.

The compound `Cn1nc2ccc(OCc3ccccn3)cc2c1C(=O)NC1(CO)CC1` [Cpd 104, N-[1-(hydroxymethyl)cyclopropyl]-2-methyl-5-[(pyridin-2-yl)methoxy]-2H-indazole-3-carboxamide] gave a pIC50 of under 4.70.

In the case of `Cn1nc2ccc(OCC3CCOCC3)cc2c1C(=O)NC(C)(CO)C(N)=O` (single isomer, unassigned) [Cpd 158 - En1], the pIC50 is 4.70 to 6.00.

For the compound `Cc1ncc(COc2ccc3nn(C)c(C(=O)NC(C)(CO)CO)c3c2)o1` [Cpd 131, N-(1,3-dihydroxy-2-methylpropan-2-yl)-2-methyl-5-[(2-methyl-1,3-oxazol-5-yl)methoxy]-2H-indazole-3-carboxamide], the pIC50 was 4.70 to 6.00.

`Cn1nccc1COc1ccc2nn(C)c(C(=O)NC3(C(N)=O)COC3)c2c1` [Cpd 030, N-(3-carbamoyloxetan-3-yl)-2-methyl-5-[(1-methyl-1H-pyrazol-5-yl)methoxy]-2H-indazole-3-carboxamide] had a pIC50 of under 4.70.

In turn, `CCn1nc2ccc(OCc3ccccn3)cc2c1C(=O)NC(C)(CO)C(N)=O` (single isomer, unassigned) [Cpd 188 - En1, 2-({2-ethyl-5-[(pyridin-2-yl)methoxy]-2H-indazol-3-yl}formamido)-3-hydroxy-2-methylpropanamide] gave a pIC50 of 4.70 to 6.00.

The compound `Cn1nc2ccc(OCC3CC3)cc2c1C(=O)NC1(CO)CCNC1=O` (single isomer, unassigned) [Cpd 161 - En2] showed a pIC50 of under 4.70.

For `O=C1c2c3cc(OCc4ccccc4F)ccc3nn2CCN1C(CO)CO` [Cpd 260, 2-(1,3-dihydroxypropan-2-yl)-9-[(2-fluorophenyl)methoxy]-1H,2H,3H,4H-pyrazino[1,2-b]indazol-1-one], the pIC50 is over 6.00.

Consider `Cc1ncc(COc2ccc3nn(C)c(C(=O)NC4(CO)CCOCC4)c3c2)s1` [Cpd 124, N-[4-(hydroxymethyl)oxan-4-yl]-2-methyl-5-[(2-methyl-1,3-thiazol-5-yl)methoxy]-2H-indazole-3-carboxamide], for which the pIC50 was under 4.70.

Compound `Cc1ncsc1COc1ccc2nn(C)c(C(=O)NCC3(N(C)C)CCC3)c2c1` [Cpd 072, N-{[1-(dimethylamino)cyclobutyl]methyl}-2-methyl-5-[(4-methyl-1,3-thiazol-5-yl)methoxy]-2H-indazole-3-carboxamide] showed a pIC50 of 4.70 to 6.00.

The compound `Cn1nc2ccc(OCc3cccnc3C(F)(F)F)cc2c1C(=O)NC1(CO)CCNC1=O` (single isomer, unassigned) [Cpd 177 - En1] gave a pIC50 of over 6.00.

For `Cc1ccc(COc2ccc3nn(C)c(C(=O)NC4(C(N)=O)CCOC4)c3c2)cn1` (single isomer, unassigned) [Cpd 164 - En1, N-(3-carbamoyloxolan-3-yl)-2-methyl-5-[(6-methylpyridin-3-yl)methoxy]-2H-indazole-3-carboxamide], the pIC50 is 4.70 to 6.00.
